Experiments:
Experiment in all cases: relative viability (nuclei count vs DMSO), 5 days (fraction); higher = more cells survive
[1] = compound: O=C(C[C@H]1NCCC[C@@H]1O)Cn1cnc2cc(Br)c(Cl)cc2c1=O (racemic) [Halofuginone] + CCNC(=O)c1noc(-c2cc(C(C)C)c(O)cc2O)c1-c1ccc(CN2CCOCC2)cc1 [Luminespib] (partner 0.01 µM)
How it was run: (§1)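 Values are medians from duplicate plates. Each reflects relative viability, defined as the nuclei count of treated wells over that of vehicle wells. Lung cancer cell lines in 1536-well plates were pin-tool dosed one day after seeding with one drug alone or with a fixed anchor-drug dose plus five library-drug doses (not always all listed) in √10 steps, then fixed, stained and imaged at 4× after 5 days.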

Decitabine + Navitoclax = compound: Nc1ncn([C@H]2C[C@H](O)[C@@H](CO)O2)c(=O)n1 [Decitabine] + CC1(C)CCC(c2ccc(Cl)cc2)=C(CN2CCN(c3ccc(C(=O)NS(=O)(=O)c4ccc(N[C@H](CCN5CCOCC5)CSc5ccccc5)c(S(=O)(=O)C(F)(F)F)c4)cc3)CC2)C1 [Navitoclax] (partner 0.5 µM)
How it was run: as §1

Cediranib + Lapatinib = compound: COc1cc2c(Oc3ccc4[nH]c(C)cc4c3F)ncnc2cc1OCCCN1CCCC1 [Cediranib] + CS(=O)(=O)CCNCc1ccc(-c2ccc3ncnc(Nc4ccc(OCc5cccc(F)c5)c(Cl)c4)c3c2)o1 [Lapatinib] (partner 2 µM)
How it was run: as §1

Cediranib + AZD7762 = compound: COc1cc2c(Oc3ccc4[nH]c(C)cc4c3F)ncnc2cc1OCCCN1CCCC1 [Cediranib] + NC(=O)Nc1cc(-c2cccc(F)c2)sc1C(=O)N[C@H]1CCCNC1 [AZD7762] (partner 0.2 µM)
How it was run: as §1

Cell Line | relative viability ([1]; first compound 0.001 µM) | relative viability ([1]; first compound 0.003162 µM) | relative viability ([1]; first compound 0.01 µM) | relative viability ([1]; first compound 0.03162 µM) | relative viability ([1]; first compound 0.1 µM) | relative viability (Decitabine + Navitoclax; first compound 0.04 µM) | relative viability (Decitabine + Navitoclax; first compound 0.1265 µM) | relative viability (Decitabine + Navitoclax; first compound 0.4 µM) | relative viability (Decitabine + Navitoclax; first compound 1.265 µM) | relative viability (Decitabine + Navitoclax; first compound 4 µM) | relative viability (Cediranib + Lapatinib; first compound 0.04 µM) | relative viability (Cediranib + Lapatinib; first compound 0.1265 µM) | relative viability (Cediranib + Lapatinib; first compound 0.4 µM) | relative viability (Cediranib + Lapatinib; first compound 1.265 µM) | relative viability (Cediranib + Lapatinib; first compound 4 µM) | relative viability (Cediranib + AZD7762; first compound 0.04 µM) | relative viability (Cediranib + AZD7762; first compound 0.1265 µM) | relative viability (Cediranib + AZD7762; first compound 0.4 µM) | relative viability (Cediranib + AZD7762; first compound 1.265 µM) | relative viability (Cediranib + AZD7762; first compound 4 µM)
201T | 1.06 | 1.04 | 1.03 | 1.08 | 0.866 | 1.16 | 1.14 | 1.27 | 1.13 | 1.1 | 1.08 | 0.897 | 1.02 | 1.01 | 0.996 | 0.705 | 0.445 | 0.607 | 0.521 | 0.618
A549 | – | – | – | – | – | 0.929 | 0.875 | 0.331 | 0.117 | 0.077 | 0.927 | 1.01 | 0.949 | 0.994 | 0.992 | – | – | – | – | –
A-427 | 1.08 | 0.934 | 0.913 | 0.818 | 0.733 | 0.674 | 0.578 | 0.365 | 0.255 | 0.191 | 1.03 | – | 0.938 | 0.897 | 0.981 | 0.816 | – | 0.685 | 0.659 | 0.707
ABC-1 | – | 0.793 | 0.518 | 0.225 | 0.377 | – | – | – | – | – | 1.24 | 1.39 | 1.14 | 1.06 | 1.24 | 0.635 | 0.729 | 0.813 | 0.905 | 0.723
BEN | 0.203 | 0.348 | 0.45 | 0.322 | 0.14 | 0.0613 | 0.0587 | 0.0516 | 0.0522 | 0.0591 | 0.945 | – | 0.665 | 0.598 | 0.681 | 0.772 | 0.587 | 0.649 | 0.517 | 0.696
CAL-12T | 0.73 | 0.548 | 0.489 | 0.423 | 0.14 | 1.02 | 0.867 | 0.752 | 0.627 | 0.497 | 0.681 | – | 0.614 | 0.676 | 0.877 | 0.668 | 0.638 | 0.633 | 0.603 | 0.669
COR-L23 | 0.819 | 0.636 | 0.699 | 0.368 | 0.211 | 0.577 | 0.478 | 0.382 | 0.294 | 0.207 | 1.1 | 0.899 | 0.895 | 0.892 | 1.32 | – | – | – | – | –
COR-L 105 | 0.668 | 0.606 | 0.694 | 0.639 | 0.532 | 0.539 | 0.534 | 0.437 | 0.318 | 0.316 | – | 0.304 | 0.361 | 0.339 | 0.337 | – | – | – | – | –
Calu-6 | – | – | – | – | – | 0.6 | 0.457 | 0.302 | 0.277 | 0.207 | 1.17 | 1.08 | 0.874 | 1.03 | 1.14 | – | – | – | – | –
ChaGo-K-1 | 0.683 | 0.712 | 0.713 | 0.563 | 0.563 | 0.681 | 0.762 | 0.479 | 0.611 | 0.565 | – | – | – | – | – | 0.843 | 0.684 | 0.886 | 0.9 | 0.948
EBC-1 | – | – | – | – | – | 0.21 | 0.257 | 0.2 | 0.178 | 0.15 | 0.252 | 0.206 | 0.213 | 0.226 | 0.202 | – | – | – | – | –
EKVX | 0.868 | 0.818 | 0.891 | 0.871 | 0.937 | 0.75 | 0.809 | 0.561 | 0.365 | 0.347 | 0.19 | 0.23 | 0.196 | 0.227 | 0.203 | 0.731 | 0.609 | 0.636 | – | 0.798
EMC-BAC-2 | 1.13 | 1.14 | 1.17 | 0.896 | 0.649 | 1.08 | 1.12 | 0.773 | 0.705 | 0.605 | 0.925 | 0.804 | 0.88 | 0.816 | 0.868 | 1.06 | 0.952 | 1.11 | 1.07 | 1.15
EPLC-272H | 0.329 | 0.169 | 0.409 | 0.479 | 0.206 | 0.734 | 0.658 | – | 0.426 | 0.413 | 0.834 | – | 0.862 | 0.77 | 0.671 | 0.2 | – | 0.272 | 0.175 | 0.259
H3255 | 0.807 | 0.742 | 0.974 | 0.908 | 0.924 | 0.201 | 0.331 | 0.353 | 0.328 | 0.276 | 0.272 | 0.228 | 0.271 | 0.246 | 0.254 | 0.889 | 0.811 | 0.924 | 0.824 | 0.886
HARA | 0.311 | 0.786 | 0.635 | 0.679 | 0.429 | 0.9 | 0.66 | 0.568 | 0.512 | 0.399 | 0.762 | 0.994 | 0.7 | 0.708 | 0.703 | 0.35 | 0.279 | 0.234 | 0.267 | 0.251
HCC-15 | 0.307 | 0.311 | 0.653 | 0.453 | 0.317 | 0.654 | 0.646 | 0.469 | 0.413 | 0.348 | 0.898 | – | 0.806 | 1.01 | 0.897 | 1.39 | – | 1.18 | 1.35 | 1.11
HCC-44 | 1.09 | 1.15 | 1 | 1 | 0.155 | 0.78 | 0.74 | 0.362 | 0.408 | 0.425 | 0.982 | – | 0.951 | 0.995 | 0.949 | 1.09 | 0.843 | 1 | 0.941 | 1.04
HCC-78 | – | – | – | – | – | 0.71 | 0.561 | 0.458 | 0.329 | 0.284 | 1 | 0.703 | 0.634 | 0.662 | 0.695 | 0.719 | 1.01 | 0.659 | 0.532 | 0.645
